Holding throughout (assay): Optical Titration Assay
Holding throughout (conditions): pH 7

In assay [1] the target is Bifunctional cytochrome P450/NADPH--P450 reductase [F87V] (Bacillus megaterium, UniProt P14779, F87V). The protocol:
(§1) Dissociation constants (Kd values) for binding of the substrates N-palmitoylglycine (NPG) and omeprazole (OMP) to WT and mutant BM3 heme domains were determined by UVvisible absorption titrations using ~1-4 μM protein in 100mMKPi, pH 7.0, at 25 °C (assay buffer) in 1-cm path length quartz cuvettes and as in our previous studies. Spectra were recorded for substrate-free enzymes and following addition of ligands during substrate titrations (typically 800 to 250 nm).

For assay [2], the target named is Bifunctional cytochrome P450/NADPH--P450 reductase [A82F] (Bacillus megaterium, UniProt P14779, A82F). The protocol: as §1
Chain of Bifunctional cytochrome P450/NADPH--P450 reductase [A82F] (P14779 whole entry A83F): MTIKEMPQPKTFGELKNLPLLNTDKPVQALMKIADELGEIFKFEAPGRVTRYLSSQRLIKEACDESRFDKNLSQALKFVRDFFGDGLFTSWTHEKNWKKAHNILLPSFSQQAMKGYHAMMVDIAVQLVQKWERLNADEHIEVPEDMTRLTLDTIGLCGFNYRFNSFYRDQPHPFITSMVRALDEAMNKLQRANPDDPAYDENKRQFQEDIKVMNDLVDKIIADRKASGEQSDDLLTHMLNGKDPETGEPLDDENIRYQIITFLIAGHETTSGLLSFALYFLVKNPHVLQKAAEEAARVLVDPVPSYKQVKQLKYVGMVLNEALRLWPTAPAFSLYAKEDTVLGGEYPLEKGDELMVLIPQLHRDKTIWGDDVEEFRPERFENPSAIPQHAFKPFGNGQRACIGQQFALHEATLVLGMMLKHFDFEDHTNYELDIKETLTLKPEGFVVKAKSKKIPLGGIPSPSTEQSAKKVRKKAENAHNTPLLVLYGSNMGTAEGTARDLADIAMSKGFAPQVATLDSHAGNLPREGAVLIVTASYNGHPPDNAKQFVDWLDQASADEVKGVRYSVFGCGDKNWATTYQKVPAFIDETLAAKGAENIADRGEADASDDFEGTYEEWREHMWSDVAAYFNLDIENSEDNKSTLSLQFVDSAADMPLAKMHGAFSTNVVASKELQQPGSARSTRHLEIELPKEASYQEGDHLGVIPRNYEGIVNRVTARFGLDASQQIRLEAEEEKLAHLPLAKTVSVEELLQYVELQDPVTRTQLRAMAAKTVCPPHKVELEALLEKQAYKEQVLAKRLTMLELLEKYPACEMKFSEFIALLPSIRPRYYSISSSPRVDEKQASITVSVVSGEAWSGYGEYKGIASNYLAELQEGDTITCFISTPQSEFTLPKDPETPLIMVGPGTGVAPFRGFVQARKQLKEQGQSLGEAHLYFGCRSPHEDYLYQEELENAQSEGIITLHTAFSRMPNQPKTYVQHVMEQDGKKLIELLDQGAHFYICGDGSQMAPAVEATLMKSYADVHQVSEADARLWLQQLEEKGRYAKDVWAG
The target in assay [3] is Bifunctional cytochrome P450/NADPH--P450 reductase [A82F,F87V] (Bacillus megaterium, UniProt P14779, A82F/F87V). The protocol:
as §1

Assay [4] has as its target T1, Bifunctional cytochrome P450/NADPH--P450 reductase (Bacillus megaterium, UniProt P14779).
T1 sequence (P14779 whole entry): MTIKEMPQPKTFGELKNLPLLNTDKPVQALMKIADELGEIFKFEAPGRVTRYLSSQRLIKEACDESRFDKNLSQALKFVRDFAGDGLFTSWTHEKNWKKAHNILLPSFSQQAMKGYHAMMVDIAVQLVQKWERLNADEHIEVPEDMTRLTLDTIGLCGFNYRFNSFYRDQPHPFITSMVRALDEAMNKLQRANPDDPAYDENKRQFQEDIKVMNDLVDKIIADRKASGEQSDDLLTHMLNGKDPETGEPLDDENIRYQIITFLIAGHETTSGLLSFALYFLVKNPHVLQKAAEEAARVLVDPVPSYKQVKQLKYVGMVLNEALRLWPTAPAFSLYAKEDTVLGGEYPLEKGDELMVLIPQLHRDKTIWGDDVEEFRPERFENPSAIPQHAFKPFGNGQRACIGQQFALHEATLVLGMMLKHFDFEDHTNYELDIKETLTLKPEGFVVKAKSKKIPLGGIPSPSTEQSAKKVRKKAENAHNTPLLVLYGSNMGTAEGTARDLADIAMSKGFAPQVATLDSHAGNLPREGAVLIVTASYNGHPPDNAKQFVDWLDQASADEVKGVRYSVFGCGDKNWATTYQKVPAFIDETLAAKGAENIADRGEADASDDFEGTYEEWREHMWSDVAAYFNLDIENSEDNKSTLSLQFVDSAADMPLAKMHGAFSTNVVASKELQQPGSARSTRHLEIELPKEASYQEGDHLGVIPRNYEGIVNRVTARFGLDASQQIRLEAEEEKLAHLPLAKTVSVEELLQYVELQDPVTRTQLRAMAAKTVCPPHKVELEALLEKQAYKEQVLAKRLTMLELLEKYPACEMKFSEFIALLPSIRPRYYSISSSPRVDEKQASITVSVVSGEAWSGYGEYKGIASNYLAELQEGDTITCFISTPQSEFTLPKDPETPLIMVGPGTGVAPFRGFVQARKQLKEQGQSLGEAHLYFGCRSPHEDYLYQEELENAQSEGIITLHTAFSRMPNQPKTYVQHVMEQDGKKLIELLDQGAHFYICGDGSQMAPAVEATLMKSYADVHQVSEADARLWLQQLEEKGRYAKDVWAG
The method, then: as §1

This is an account of results in BindingDB's records for doi:10.1074/jbc.M113.479717 (University of Manchester, 2013).

Usually Kd stands for a measure of binding affinity in units of concentration. Low readings indicate a tighter complex, high ones a looser complex.

Molecules are shown by their SMILES.

Chain of Bifunctional cytochrome P450/NADPH--P450 reductase [F87V] (P14779 whole entry F88V, the tested form may be a part): as the sequence (P14779 whole entry A83F) above, with F83A, F88V counted along it
Chain of Bifunctional cytochrome P450/NADPH--P450 reductase [A82F,F87V] (P14779 whole entry A83F/F88V): as the sequence (P14779 whole entry A83F) above, with F88V counted along it

Take `COc1ccc2[nH]c([S+]([O-])Cc3ncc(C)c(OC)c3C)nc2c1` (configuration not stated) [H-168/68]: the Kd in assay [1] was 49000 nM; in assay [2], 1670 nM; in assay [3], 212 nM.

On to `CCCCCCCCCCCCCCCC(=O)NCC(=O)O` [N-palmitoylglycine (NPG)], for which the dissociation constant (Kd) in assay [1] was 204 nM; in assay [4], 82 nM; in assay [2], 297 nM; in assay [3], 4 nM.
